Values belong to the molecule of their own block, whether it stands above or below them.
Key:
CLK1 (H148-I484) [1] = target: CLK1 (H148-I484) (Homo sapiens, UniProt P49759); settings: binder
CLK1 (H148-I484) [2] = target: CLK1 (H148-I484) (Homo sapiens, UniProt P49759, V324A); settings: binder
BMP2K = BMP2K (Homo sapiens, UniProt Q9NSY1); settings: binder
CDC42BPG = CDC42BPG (Homo sapiens, UniProt Q6DT37); settings: binder
DMPK = DMPK (Homo sapiens, UniProt Q09013); settings: binder
ACVR2A = ACVR2A (Homo sapiens, UniProt P27037); settings: binder
PAK6 = PAK6 (Homo sapiens, UniProt Q9NQU5); settings: binder
ACVRL1 = ACVRL1 (Homo sapiens, UniProt P37023); settings: binder
TYRO3 = TYRO3 (Homo sapiens, UniProt Q06418); settings: binder
RIPK2 = RIPK2 (Homo sapiens, UniProt O43353); settings: binder
WNK3 = WNK3 (Homo sapiens, UniProt Q9BYP7); settings: binder
ACVR1B = ACVR1B (Homo sapiens, UniProt P36896); settings: binder
TGFBR2 = TGFBR2 (Homo sapiens, UniProt P37173); settings: binder
GSG2 = GSG2 (Homo sapiens, UniProt Q8TF76); settings: binder
CAMK2B = CAMK2B (Homo sapiens, UniProt Q13554); settings: binder
CLK1 (full-length) = CLK1 (full-length) (Homo sapiens, UniProt P49759, V324A); experiment: cell-based; design: species or system HEK293T
MYLK2 = MYLK2 (Homo sapiens, UniProt Q9H1R3); settings: binder
NEK2 = NEK2 (Homo sapiens, UniProt P51955); settings: binder
NEK1 = NEK1 (Homo sapiens, UniProt Q96PY6); settings: binder
NEK6 = NEK6 (Homo sapiens, UniProt Q9HC98); settings: binder
MAP2K1 = MAP2K1 (Homo sapiens, UniProt Q02750); settings: binder
SIK1 = SIK1 (Homo sapiens, UniProt P57059); settings: binder
SIK2 = SIK2 (Homo sapiens, UniProt Q9H0K1); settings: binder
CDC42BPB = CDC42BPB (Homo sapiens, UniProt Q9Y5S2); settings: binder
ITK = ITK (Homo sapiens, UniProt Q08881); settings: binder
CDK4 = CDK4 (Homo sapiens, UniProt P11802); settings: binder
IKBKB = IKBKB (Homo sapiens, UniProt O14920); settings: binder
STK24 = STK24 (Homo sapiens, UniProt Q9Y6E0); settings: binder
RIPK3 = RIPK3 (Homo sapiens, UniProt Q9Y572); settings: binder
SRPK2 = SRPK2 (Homo sapiens, UniProt P78362); settings: binder

NEK1, sequence (Q96PY6 whole entry): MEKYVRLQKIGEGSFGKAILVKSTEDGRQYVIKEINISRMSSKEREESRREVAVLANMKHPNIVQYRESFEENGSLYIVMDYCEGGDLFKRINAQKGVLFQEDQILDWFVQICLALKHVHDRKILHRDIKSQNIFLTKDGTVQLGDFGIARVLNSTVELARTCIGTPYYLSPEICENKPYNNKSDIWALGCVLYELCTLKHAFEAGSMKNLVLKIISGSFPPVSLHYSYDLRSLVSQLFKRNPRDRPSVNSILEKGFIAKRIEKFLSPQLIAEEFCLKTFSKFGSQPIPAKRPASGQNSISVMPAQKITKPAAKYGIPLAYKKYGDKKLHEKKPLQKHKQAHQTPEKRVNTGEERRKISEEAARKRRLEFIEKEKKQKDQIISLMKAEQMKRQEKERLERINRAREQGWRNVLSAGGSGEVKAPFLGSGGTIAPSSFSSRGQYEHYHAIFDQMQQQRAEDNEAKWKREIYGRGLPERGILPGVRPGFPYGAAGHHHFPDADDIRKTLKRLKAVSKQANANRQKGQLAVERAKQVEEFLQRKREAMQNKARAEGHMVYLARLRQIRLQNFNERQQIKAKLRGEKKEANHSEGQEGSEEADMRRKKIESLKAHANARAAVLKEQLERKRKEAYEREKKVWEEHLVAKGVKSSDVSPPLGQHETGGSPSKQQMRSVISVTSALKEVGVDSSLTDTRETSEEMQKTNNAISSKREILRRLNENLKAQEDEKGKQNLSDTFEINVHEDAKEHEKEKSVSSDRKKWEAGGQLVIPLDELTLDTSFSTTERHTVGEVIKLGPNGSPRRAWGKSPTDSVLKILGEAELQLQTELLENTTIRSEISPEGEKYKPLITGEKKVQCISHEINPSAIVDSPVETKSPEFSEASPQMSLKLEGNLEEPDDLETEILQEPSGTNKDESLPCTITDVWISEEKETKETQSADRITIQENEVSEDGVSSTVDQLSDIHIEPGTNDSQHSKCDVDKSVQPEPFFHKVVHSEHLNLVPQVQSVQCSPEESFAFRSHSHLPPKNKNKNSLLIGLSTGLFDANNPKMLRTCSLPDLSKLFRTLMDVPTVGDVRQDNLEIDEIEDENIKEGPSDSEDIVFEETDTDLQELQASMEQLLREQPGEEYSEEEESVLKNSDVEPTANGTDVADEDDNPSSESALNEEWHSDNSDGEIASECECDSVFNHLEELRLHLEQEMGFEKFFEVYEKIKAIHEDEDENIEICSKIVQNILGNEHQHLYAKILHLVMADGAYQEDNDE
BMP2K, sequence (Q9NSY1 whole entry): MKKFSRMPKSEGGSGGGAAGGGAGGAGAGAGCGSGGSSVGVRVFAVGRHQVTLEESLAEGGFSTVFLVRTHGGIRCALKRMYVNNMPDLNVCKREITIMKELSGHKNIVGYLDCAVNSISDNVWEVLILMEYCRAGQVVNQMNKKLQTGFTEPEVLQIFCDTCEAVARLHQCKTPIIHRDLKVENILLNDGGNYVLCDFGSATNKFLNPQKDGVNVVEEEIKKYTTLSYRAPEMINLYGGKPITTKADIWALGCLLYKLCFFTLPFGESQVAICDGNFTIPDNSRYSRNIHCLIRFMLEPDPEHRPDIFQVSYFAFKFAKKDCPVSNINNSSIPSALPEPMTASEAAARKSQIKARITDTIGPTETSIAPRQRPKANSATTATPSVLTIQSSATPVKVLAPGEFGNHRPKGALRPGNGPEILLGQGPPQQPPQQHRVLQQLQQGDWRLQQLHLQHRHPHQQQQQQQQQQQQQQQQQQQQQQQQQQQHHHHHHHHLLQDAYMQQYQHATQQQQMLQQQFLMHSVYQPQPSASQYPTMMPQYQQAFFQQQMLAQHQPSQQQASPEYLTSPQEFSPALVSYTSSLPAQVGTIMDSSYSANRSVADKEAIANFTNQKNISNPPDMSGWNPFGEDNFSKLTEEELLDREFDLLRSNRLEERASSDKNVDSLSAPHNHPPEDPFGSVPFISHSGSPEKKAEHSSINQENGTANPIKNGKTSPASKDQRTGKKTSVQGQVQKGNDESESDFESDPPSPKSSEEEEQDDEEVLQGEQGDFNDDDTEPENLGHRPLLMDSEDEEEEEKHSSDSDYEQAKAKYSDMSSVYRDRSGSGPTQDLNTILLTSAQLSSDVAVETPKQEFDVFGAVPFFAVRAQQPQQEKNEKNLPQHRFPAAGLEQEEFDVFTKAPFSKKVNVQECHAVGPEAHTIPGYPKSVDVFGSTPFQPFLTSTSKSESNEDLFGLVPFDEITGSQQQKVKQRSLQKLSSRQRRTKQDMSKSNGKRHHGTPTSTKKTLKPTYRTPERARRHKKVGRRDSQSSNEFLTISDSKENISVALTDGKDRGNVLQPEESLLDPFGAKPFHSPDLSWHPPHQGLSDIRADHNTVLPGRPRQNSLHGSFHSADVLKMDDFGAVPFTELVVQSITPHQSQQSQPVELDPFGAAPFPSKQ
GSG2, sequence (Q8TF76 whole entry): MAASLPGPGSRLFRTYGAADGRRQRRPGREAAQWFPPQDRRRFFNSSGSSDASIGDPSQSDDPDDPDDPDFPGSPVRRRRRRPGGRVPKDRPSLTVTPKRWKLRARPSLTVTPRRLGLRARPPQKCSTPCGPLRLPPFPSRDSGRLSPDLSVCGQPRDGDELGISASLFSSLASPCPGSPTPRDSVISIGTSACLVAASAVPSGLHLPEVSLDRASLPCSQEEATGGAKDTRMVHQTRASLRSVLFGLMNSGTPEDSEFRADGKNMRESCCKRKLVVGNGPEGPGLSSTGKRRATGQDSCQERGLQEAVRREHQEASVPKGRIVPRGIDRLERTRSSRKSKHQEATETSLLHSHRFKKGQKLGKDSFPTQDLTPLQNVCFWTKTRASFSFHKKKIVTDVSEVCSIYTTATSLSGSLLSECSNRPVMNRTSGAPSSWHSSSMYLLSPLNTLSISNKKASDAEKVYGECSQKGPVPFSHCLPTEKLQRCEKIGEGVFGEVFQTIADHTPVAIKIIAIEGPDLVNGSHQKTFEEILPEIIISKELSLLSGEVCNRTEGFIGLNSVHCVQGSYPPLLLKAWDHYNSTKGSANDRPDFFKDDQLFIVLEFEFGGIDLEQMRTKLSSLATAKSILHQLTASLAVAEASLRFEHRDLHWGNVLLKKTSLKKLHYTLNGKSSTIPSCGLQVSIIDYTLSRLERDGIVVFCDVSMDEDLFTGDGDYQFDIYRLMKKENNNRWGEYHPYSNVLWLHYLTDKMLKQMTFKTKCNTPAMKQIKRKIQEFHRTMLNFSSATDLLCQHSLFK
CLK1 (H148-I484) (Homo sapiens, UniProt P49759, V324A), sequence (P49759 148-484 V324A): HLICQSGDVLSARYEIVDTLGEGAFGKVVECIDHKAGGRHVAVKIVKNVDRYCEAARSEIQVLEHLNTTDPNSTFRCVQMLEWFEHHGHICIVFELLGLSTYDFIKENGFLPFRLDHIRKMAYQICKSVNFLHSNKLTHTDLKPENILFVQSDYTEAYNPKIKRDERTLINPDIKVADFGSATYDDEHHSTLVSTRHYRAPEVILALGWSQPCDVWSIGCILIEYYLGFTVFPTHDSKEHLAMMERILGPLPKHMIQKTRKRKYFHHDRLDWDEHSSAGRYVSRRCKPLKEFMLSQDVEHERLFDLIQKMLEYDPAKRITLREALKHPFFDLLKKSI
MYLK2, sequence (Q9H1R3 whole entry): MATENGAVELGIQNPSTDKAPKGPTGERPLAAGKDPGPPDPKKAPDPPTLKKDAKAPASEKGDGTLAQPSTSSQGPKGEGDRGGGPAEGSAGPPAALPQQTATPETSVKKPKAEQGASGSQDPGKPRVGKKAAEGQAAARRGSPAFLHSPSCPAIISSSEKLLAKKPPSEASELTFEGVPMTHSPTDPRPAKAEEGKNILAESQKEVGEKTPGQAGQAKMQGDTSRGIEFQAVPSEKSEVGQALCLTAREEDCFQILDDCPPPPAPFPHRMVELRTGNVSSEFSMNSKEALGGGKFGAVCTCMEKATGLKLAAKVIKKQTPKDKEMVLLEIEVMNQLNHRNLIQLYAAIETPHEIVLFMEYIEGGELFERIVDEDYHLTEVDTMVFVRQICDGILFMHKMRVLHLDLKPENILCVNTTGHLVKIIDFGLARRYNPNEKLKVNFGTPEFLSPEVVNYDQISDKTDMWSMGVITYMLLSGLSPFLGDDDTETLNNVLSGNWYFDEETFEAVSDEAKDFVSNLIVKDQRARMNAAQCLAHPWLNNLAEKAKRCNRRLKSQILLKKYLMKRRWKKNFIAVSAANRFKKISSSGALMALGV
TYRO3, sequence (Q06418 whole entry): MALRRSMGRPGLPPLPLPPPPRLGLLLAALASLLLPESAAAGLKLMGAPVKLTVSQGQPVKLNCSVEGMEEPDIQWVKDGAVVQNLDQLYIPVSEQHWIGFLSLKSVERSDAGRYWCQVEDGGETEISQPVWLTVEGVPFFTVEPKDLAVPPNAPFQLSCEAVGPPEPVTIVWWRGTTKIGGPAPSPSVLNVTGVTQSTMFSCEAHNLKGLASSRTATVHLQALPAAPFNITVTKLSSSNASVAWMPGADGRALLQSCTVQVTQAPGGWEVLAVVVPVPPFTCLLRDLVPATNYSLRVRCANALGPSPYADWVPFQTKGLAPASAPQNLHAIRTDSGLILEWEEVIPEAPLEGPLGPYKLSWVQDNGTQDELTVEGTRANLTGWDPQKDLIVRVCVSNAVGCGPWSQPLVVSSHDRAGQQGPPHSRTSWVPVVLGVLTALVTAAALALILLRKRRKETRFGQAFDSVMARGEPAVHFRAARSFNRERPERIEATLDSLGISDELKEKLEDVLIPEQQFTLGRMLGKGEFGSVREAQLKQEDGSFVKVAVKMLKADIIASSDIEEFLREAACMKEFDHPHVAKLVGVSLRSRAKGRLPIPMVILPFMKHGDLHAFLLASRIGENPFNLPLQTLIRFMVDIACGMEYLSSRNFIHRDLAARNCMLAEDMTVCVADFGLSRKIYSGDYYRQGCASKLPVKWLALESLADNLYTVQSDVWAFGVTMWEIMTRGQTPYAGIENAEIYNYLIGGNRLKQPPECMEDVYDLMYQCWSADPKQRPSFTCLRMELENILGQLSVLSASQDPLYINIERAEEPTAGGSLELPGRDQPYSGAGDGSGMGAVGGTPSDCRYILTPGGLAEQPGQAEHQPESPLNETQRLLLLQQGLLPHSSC
CLK1 (H148-I484) (Homo sapiens, UniProt P49759), sequence (P49759 148-484): as the sequence (P49759 148-484 V324A) above, with A177V counted along it

ΔTm wild type CLK1 (CLK1 (H148-I484) [1]): 7.2 °C
ΔTm V324A CLK1 (CLK1 (H148-I484) [2]): 4.9 °C
ΔTm inhibitor 1 (BMP2K): 10.7 °C
ΔTm inhibitor 1 (CDC42BPG): 0.6 °C
ΔTm inhibitor 1 (DMPK): 1.0 °C
ΔTm inhibitor 1 (ACVR2A): 4.0 °C
ΔTm inhibitor 1 (PAK6): 1.1 °C
ΔTm inhibitor 1 (ACVRL1): 11.1 °C
ΔTm inhibitor 1 (TYRO3): 0.4 °C
ΔTm inhibitor 1 (RIPK2): 6.0 °C
ΔTm inhibitor 1 (WNK3): 0.0 °C
ΔTm inhibitor 1 (ACVR1B): 9.1 °C
ΔTm inhibitor 1 (TGFBR2): 13.7 °C
ΔTm inhibitor 1 (GSG2): 6.5 °C
ΔTm inhibitor 1 (CAMK2B): 0.2 °C
Ki (CLK1 (full-length)): 512 ± 100 nM
Structure (SMILES): CC(=O)c1cccc(-c2cnc3ccc(NCC4CC4)nn23)c1 [compound 1, K00135]

ΔTm inhibitor 2 (BMP2K): 0.2 °C
ΔTm inhibitor 2 (MYLK2): -1.4 °C
ΔTm inhibitor 2 (CDC42BPG): -1.3 °C
ΔTm inhibitor 2 (DMPK): 1.0 °C
ΔTm inhibitor 2 (NEK2): 0.8 °C
ΔTm inhibitor 2 (NEK1): -0.3 °C
ΔTm inhibitor 2 (PAK6): -0.9 °C
ΔTm inhibitor 2 (NEK6): -1.0 °C
ΔTm inhibitor 2 (MAP2K1): -0.1 °C
ΔTm inhibitor 2 (SIK1): 1.5 °C
ΔTm inhibitor 2 (SIK2): -0.2 °C
ΔTm inhibitor 2 (TYRO3): 0.1 °C
ΔTm inhibitor 2 (CDC42BPB): 0.3 °C
ΔTm inhibitor 2 (ITK): 1.1 °C
ΔTm inhibitor 2 (CDK4): -0.6 °C
ΔTm inhibitor 2 (IKBKB): 0.1 °C
ΔTm inhibitor 2 (WNK3): -0.3 °C
ΔTm inhibitor 2 (STK24): -0.2 °C
ΔTm inhibitor 2 (RIPK3): -0.6 °C
ΔTm inhibitor 2 (SRPK2): -0.2 °C
ΔTm inhibitor 2 (CAMK2B): 0.3 °C
Structure (SMILES): CCN1/C(=C/C(C)=O)Sc2ccc(OC)cc21 [compound 2, TG003]

ΔTm wild type CLK1 (CLK1 (H148-I484) [1]): 5.7 °C
ΔTm V324A CLK1 (CLK1 (H148-I484) [2]): 2.4 °C
ΔTm inhibitor 4 (MYLK2): 0.0 °C
ΔTm inhibitor 4 (NEK2): 0.1 °C
ΔTm inhibitor 4 (ACVR2A): 0.3 °C
ΔTm inhibitor 4 (NEK1): 0.6 °C
ΔTm inhibitor 4 (ACVRL1): 1.2 °C
ΔTm inhibitor 4 (MAP2K1): 0.2 °C
ΔTm inhibitor 4 (SIK2): 0.4 °C
ΔTm inhibitor 4 (CDC42BPB): 0.2 °C
ΔTm inhibitor 4 (CDK4): 1.5 °C
ΔTm inhibitor 4 (IKBKB): 1.5 °C
ΔTm inhibitor 4 (ACVR1B): 1.1 °C
ΔTm inhibitor 4 (STK24): 0.8 °C
ΔTm inhibitor 4 (TGFBR2): 2.0 °C
ΔTm inhibitor 4 (SRPK2): 0.4 °C
ΔTm inhibitor 4 (GSG2): 4.0 °C
Structure (SMILES): Nc1nccc(-c2ccc3noc(-c4ccc(Cl)cc4)c3c2)n1 [compound 4, K00972]

From publication doi:10.1101/2020.07.01.182642v1 (biorxiv, 2020)
